Test results from patent US20080045521A1, “PHENYLALANINE DERIVATIVES” (AstraZeneca AB, priority 2006, published 2008).

Tests used:
[1] = biological target: T1, α5β1 integrin mediated adhesion of K562 cells (Homo sapiens, UniProt P05556+P08648); assay: In vitro cell adhesion assay (b): inhibition of adhesion of K562 cells to fibronectin fragment Fn9-10, crystal violet stain; type: cell-based; details: for IC50: K562 cells on Fn9-10, geometric mean of the measured IC50 values, n = number of tests; for activity in the cell adhesion assay (b): K562 cells, result in words
T1 construct: host or cells: K562 human erythroleukaemia cells
T1 sequence (P08648 42-894 limits assumed): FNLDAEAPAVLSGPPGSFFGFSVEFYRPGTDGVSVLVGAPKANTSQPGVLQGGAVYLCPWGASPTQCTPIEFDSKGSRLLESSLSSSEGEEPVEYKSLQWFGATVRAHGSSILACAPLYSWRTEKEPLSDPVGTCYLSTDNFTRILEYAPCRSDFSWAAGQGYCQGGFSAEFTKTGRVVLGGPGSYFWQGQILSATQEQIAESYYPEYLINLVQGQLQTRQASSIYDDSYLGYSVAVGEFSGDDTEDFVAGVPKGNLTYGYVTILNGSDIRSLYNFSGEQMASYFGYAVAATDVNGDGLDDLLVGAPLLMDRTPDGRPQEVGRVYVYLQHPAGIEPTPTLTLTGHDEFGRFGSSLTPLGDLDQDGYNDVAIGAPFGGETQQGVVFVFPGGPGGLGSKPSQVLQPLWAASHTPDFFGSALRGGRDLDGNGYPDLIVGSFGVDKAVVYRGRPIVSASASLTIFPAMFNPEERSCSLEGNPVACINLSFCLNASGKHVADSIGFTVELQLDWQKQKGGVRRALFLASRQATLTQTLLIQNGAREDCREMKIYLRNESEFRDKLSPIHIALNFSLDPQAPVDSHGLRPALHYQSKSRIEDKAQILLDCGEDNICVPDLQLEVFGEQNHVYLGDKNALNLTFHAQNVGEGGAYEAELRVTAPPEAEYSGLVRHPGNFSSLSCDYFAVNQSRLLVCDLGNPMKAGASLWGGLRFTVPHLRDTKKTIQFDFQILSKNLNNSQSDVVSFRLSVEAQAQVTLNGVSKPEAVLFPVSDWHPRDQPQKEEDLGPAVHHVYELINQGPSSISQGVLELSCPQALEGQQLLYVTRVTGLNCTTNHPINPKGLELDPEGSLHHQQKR
T1 sequence (P08648 895-1049 partner limits assumed): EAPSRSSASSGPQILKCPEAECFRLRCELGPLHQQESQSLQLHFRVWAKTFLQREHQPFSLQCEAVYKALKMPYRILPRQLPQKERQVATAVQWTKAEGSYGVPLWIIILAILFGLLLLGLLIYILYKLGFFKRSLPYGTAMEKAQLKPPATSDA
T1 sequence (P05556 21-798): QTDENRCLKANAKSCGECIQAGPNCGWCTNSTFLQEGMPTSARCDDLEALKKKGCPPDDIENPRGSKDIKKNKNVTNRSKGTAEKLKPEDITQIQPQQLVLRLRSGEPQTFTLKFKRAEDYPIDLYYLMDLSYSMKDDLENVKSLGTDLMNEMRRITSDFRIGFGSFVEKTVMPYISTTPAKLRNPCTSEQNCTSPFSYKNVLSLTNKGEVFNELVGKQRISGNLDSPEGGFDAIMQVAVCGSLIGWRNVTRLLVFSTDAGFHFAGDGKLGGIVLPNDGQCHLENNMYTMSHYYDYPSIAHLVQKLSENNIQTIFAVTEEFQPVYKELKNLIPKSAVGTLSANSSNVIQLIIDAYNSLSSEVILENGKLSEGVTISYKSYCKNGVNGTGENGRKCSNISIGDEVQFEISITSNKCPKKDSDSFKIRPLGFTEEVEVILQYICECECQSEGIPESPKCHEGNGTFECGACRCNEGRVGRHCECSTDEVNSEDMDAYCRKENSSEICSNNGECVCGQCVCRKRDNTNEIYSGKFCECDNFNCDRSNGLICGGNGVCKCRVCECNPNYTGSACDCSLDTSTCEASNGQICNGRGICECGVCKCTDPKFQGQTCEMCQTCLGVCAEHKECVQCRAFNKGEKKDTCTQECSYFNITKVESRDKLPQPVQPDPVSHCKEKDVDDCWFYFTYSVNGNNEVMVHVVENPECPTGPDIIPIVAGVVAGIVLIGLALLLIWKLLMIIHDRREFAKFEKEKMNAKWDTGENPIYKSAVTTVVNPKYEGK
Description: (b) In Vitro Cell Adhesion Assay
The assay determined the ability of compounds to inhibit the α5β1 integrin mediated adhesion of K562 cells to the ligand, a fragment of human fibronectin. The human K562 erythroleukaemia cell line (LGC Promochem, Teddington, Middlesex, UK, Catalogue No. CCL-243) was routinely maintained in RPMI 1640 medium (Sigma-Aldrich Company Ltd, Gillingham, Dorset SP8 4XT, Catalogue No. R0883) containing 10% heat-inactivated foetal calf serum (PAA lab GmbH, Pasching, Austria Catalogue No. PAA-A15-043) and 1% glutamax-1 (Invitrogen Ltd. Paisley, UK Catalogue No. 35050-038) at 37° C. with 5% CO2 at densities between 1×10^5 and 1×10^6 cells/ml.
A DNA fragment encoding the domains 9-10 (amino-acids 1325-1509) of human fibronectin (Swiss-Prot Accession No. P02751) was isolated from cDNA libraries using standard molecular biology and PCR cloning techniques. The cDNA fragment was sub-cloned into a pT7#3.3 expression vector containing a GST-epitope tag (developed at AstraZeneca; Bagnall et al., Protein Expression and Purification, 2003, 27: 1-11), and the fragment termed Fn9-10. Following expression in E. coli, the expressed protein was purified using the GST-tag using standard purification techniques.
For adhesion assay, a 96-well flat bottomed plate (Greiner Bio one ltd., Gloucester GL10 3 SX Catalogue No. 655101) was coated overnight at 4° C. with 100 μl of 20 μg/ml Fn9-10 ligand in Dulbecco's PBS (Gibco#14190-94). The plate was then washed twice with 200 μl of PBS and blocked with 100 μl of 3% BSA (SigmaA7888) in PBS for 1 hour at 37° C. The plates were then washed again 3 times with 200 μl of PBS and left empty.
Test compounds were prepared as 10 mM stock solutions in DMSO (Sigma-Aldrich Company Ltd, Gillingham, Dorset SP8 4XT Catalogue No. 154938) and serially diluted with HBSS (Hanks Buffered Salt solution (Gibco Catalogue No. 14170-088)/2% DMSO to give a range of test concentrations at twice required final concentration. Aliquots (50 μl) of each compound dilution were placed into each well of the Fn9-10 coated plates. Each plate also contained control wells: maximum adhesion signal was created using wells containing 50 μl HBSS/2% DMSO, and minimum signal corresponding to no adhesion was created using wells containing 50 μl HBSS/2% DMSO /20 mM EDTA (Sigma Catalogue No. E7889). […]
After fixation, the ethanol was flicked off to waste and 100 μl of 0.1% Crystal violet stain was added to each well, and incubated at ambient temperature for 15 minutes. […] Finally, 100 μl of deionised water was added to each well and the absorbance was determined at 590 nm on a spectrophotometer. The minimum value was subtracted from all values, and the absorbance signal was plotted against compound concentration to generate IC50 data.

recombinant human α5β1 = recombinant human α5β1 (Homo sapiens, UniProt P05556+P08648); assay: In vitro binding assay (a): inhibition of binding of α5β1 integrin to a fragment of human fibronectin (Fn9-10), Origen electrochemiluminescence; details: geometric mean of the measured IC50 values; n = number of tests
recombinant human α5β1, sequence (P08648 42-1049): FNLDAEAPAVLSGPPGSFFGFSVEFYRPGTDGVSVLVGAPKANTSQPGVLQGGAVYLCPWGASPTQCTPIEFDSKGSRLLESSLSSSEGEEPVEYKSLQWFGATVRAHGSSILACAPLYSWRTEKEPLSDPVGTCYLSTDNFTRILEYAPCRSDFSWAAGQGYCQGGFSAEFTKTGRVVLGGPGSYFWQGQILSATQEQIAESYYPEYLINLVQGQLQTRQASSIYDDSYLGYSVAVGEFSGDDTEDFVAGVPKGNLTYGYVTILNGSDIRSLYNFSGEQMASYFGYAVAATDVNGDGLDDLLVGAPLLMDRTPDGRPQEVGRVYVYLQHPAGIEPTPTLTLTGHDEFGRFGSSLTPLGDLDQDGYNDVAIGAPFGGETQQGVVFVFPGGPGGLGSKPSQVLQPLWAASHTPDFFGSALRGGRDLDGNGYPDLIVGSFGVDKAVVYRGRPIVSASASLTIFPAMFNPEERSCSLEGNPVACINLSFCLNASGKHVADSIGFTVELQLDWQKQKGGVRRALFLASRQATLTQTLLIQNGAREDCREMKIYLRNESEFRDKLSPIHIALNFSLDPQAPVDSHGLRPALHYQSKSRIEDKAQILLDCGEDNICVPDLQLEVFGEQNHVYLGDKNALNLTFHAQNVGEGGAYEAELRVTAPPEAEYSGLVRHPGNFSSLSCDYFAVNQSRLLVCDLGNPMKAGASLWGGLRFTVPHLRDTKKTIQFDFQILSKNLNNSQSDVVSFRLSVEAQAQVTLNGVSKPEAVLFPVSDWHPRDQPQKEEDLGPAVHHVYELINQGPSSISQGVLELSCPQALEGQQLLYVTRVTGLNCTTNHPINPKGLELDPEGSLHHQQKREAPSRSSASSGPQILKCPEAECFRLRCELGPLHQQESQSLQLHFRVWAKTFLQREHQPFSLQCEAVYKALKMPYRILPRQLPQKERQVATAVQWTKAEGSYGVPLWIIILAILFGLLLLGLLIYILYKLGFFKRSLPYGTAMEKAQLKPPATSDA
recombinant human α5β1, sequence (P05556 21-798): as the sequence (P05556 21-798) above
Description: (a) In Vitro Binding Assay
The assay determined the ability of compounds to inhibit binding of α5β1 integrin to a cognate ligand, a fragment of human fibronectin. The assay used Origen technology (IGEN International) to measure the compound activity. Briefly, α5β1 integrin was coated onto epoxy-paramagnetic beads (Dynal Biotech UK, Bromborough, Wirral, CH62 3QL, UK, Catalogue No 140.11) and biotinylated-fibronectin ligand was coupled to strepatividin labeled Tag-NHS-Ester (BioVeris Corporation, Witney, Oxfordshire, OX28 4GE, UK, Catalogue No 110034). The ruthenium-labeled tag emits an electrochemiluminescence signal upon stimulation which is detected by the Origen reader. […]
20 μg of recombinant human α5β1 was coated onto 4×10(7) epoxy-paramagnetic beads according to manufacturers instructions at 4° C. for 24 hours. Integrin coating and corresponding activity was subsequently measured for each batch but typically, 25 ng of coated protein was used per assay well. […]
For the assay, 25 ng (20 ul) of a5b 1-bead suspension and 40 μl of the Fn9-10/Tag pre-incubated solution were added to each well containing 20 μl of compound or control solution. Assay plates were then incubated at room temperature for a minimum of 6 hours before being analysed on an Origen plate reader. […]

Row | IC50 [1] | IC50 (recombinant human α5β1) | SMILES | activity in the cell adhesion assay (b) [1]
1 | 2 nM | 0.4 nM | O=C(N[C@@H](Cc1ccc(OCCc2ccc3c(n2)NCCC3)cc1)C(=O)O)c1c(Cl)cccc1Cl [Example 3, N-(2,6-dichlorobenzoyl)-O-[2-(5,6,7,8-tetrahydro-1,8-naphthyridin-2-yl)ethyl]-L-tyrosine] | –
2 | – | – | O=C(N[C@@H](Cc1cccc(OCCCCNc2ccccn2)c1)C(=O)O)c1c(Cl)cccc1Cl [N-(2,6-dichlorobenzoyl)-3-[4-(pyridin-2-ylamino)butoxy]-L-phenylalanine] | low activity
3 | 31 nM | 2 nM | CNc1cccc(CCCc2ccc(C[C@H](NC(=O)c3c(Cl)cccc3Cl)C(=O)O)s2)n1 [Example 29, N-(2,6-dichlorobenzoyl)-3-(5-{3-[6-(methylamino)pyridin-2-yl]propyl}-2-thienyl)-L-alanine] | –
4 | – | – | O=C(N[C@@H](Cc1cccc(OCCNc2ccccn2)c1)C(=O)O)c1c(Cl)cccc1Cl [N-(2,6-dichlorobenzoyl)-3-[2-(pyridin-2-ylamino)ethoxy]-L-phenylalanine] | low activity
